According to patent publication US20130060020A1, “Compounds useful for treating neurodegenerative disorders” (Satori Pharmaceuticals, Inc., priority 2011, published 2013):
Read-outs that look alike come from different tables or passages of the source.

What was measured:
Type in all cases: cell-based
[1] = test system: Aβ-40; assay: Aβ-40 MSD 3-plex ELISA, conditioned media of 2B7 cells; details: Homo sapiens, 5 hours treatment
Experimental: (§1) Assays were conducted to determine the ability of a Compound of Formula I to modulate […], and Aβ-38.
(§2) Plates with capture antibodies were blocked for 1-2 hours at room temperature with 150 μL of the manufactures blocking reagent.
(§3) Cultured 2B7 cells in 96 well plate with 250 μL of media per well until confluent;
(§4) Prepared serial dilutions of compounds in DMSO at 100× the final desired concentration;
(§5) Washed wells with 2B7 cells 1× with 250 μL of media;
(§6) Diluted DMSO stocks 1:100 into media: • Added 250 μL of media containing compounds (1% DMSO) to wells with 2B7 cells for 5 hours at 37° C.
(§7) ELISA Sample Prep: • Diluted conditioned media: 1 part media with 1% DMSO and 1 part blocking buffer; • 150 μL of the 250 μL of conditioned media were used.
(§8) Prepared per manufacturer's protocol (see above). • Seven point standard curve samples were prepared that contained Aβ-42, Aβ-40, and Aβ-38. The highest concentration of Aβ-42 and Aβ-38 was 3,000 pg/mL and the highest concentration of Aβ-40 was 10,000 pg/mL. Subsequent serial dilutions were 1:3 and the final composition of each sample was 1 part blocking buffer and 1 part cell medium containing 1% DMSO.
(§9) Overnight Sample Incubation: • Blocked plates are washed 5× with MSD wash buffer with a plate washer; • […] and blocker G reagent in MSD blocking solution was added; • 25 μL of samples (1 part conditioned media containing 1% DMSO and 1 part MSD blocking buffer) were then added; • Plates were incubated overnight at 4 degrees C. or 2 hours at room temperature.
(§10) Final Wash and Readout: • Washed wells 5× with MSD wash buffer; • Added 150 μL 2×MSD read buffer; • Read with MSD imager.
(§11) Aβ peptide levels for each peptide were calculated from the standard curve using the MSD software provided with the MSD 2400 Imager. Percent vehicle values for each compound dosage were then calculated and fit to a 4 parameter curve generating IC50 values.
(§12) Conditioned media from 2B7 cells (Mayo) was collected after 5 hours of treatment and diluted with 1 volume of Meso Scale Discovery (MSD, Gaithersburg Md.) blocking buffer (1% BSA in MSD wash buffer). For total Aβ measurements, standard-bind, multi-array single spot 96 well MSD ELISA plates were coated with unlabeled 4G8 capture antibody (Covance, Princeton, N.J.) overnight at 4° C. and then blocked with 5% BSA in MSD wash buffer for 1 hour at room temperature with orbital shaking Diluted 2B7 conditioned media were added to the blocked in-house total Aβ MSD plates with SULFO-TAG 6E10 antibody (MSD). For Aβ38, 40 and 42 measurements, diluted 2B7 conditioned media were added to blocked human (6E10) Aβ 3-Plex plates (MSD). Total Aβ and Aβ 3-Plex plates were incubated for 2 hours at room temperature with orbital shaking followed by washing and reading according to the manufacturer's instructions (SECTOR® Imager 2400, MSD). Aβ concentrations were converted to percent vehicle values and used to construct dose response curves which were fitted to […] using GraphPad Prism version 5.00 for Windows, GraphPad Software, San Diego Calif. USA.

[2] = test system: Notch processing (NICD); assay: Notch assay: NICD appearance in SUP-T1 cells (western blot); details: 18 hours; for Notch % inhib: Notch inhib conc class D (1001-5000 nM); for inhibition at 5 µM: Notch inhib conc class E (>5000 nM)
Experimental: The methods for this assay are broken up into two parts. 1) Growing, dosing and lysing cells 2) Measuring Notch processing (NICD appearance) and data manipulation. Cell viability is also described (CTG). SUP-T1 cells were cultured in T75 flasks in RPMI media (Mediatech 10-041-CV) supplemented with 10% FBS and penicillin/streptomycin at 37° C. in a 5% CO2 atmosphere. One hour prior to drug treatment six well plates were seeded with 1.5 mL of media with cells at a density of 1.0×10^6 cells/mL. The DMSO serial dilutions were diluted 100 fold directly into the media with the cells and incubated for 18 hours at 37° C. After treatment 100 μL of treated cells were assayed for viability with the Promega Cell Titer Glo assay system. […] Lysates were spun at 5,000 RPM for 5 minutes and supernatants were collected and analyzed for NICD levels. […] To account for loading discrepancies each NICD band was normalized to the alpha tubulin band in that well. These values were then normalized to vehicle levels and used to plot a dose response curve. IC50 values were obtained from the dose response curves using a four parameter fit method available within Prism's GraphPad graphing suite. Luminescent data from Promega's Cell Titre Glo assay system were normalized to vehicle controls and plotted with NICD levels.

[3] = test system: Aβ-42; assay: Aβ-42 MSD 3-plex ELISA, conditioned media of 2B7 cells; details: Homo sapiens, 5 hours treatment
Experimental: as §1, §2, §3, §4, §5, §6, §7, §8, §9, §10, §11, §12

[4] = test system: Aβ-38; assay: Aβ-38 MSD 3-plex ELISA, conditioned media of 2B7 cells; details: Homo sapiens, 5 hours treatment
Experimental: as §1, §2, §3, §4, §5, §6, §7, §8, §9, §10, §11, §12

[5] = inflection of dose response curve, read-out: Aβ 40 DR IC50 Inflection
[6] = inflection of dose response curve, read-out: Aβ 42 DR IC50 Inflection
[7] = inflection of dose response curve, read-out: Aβ 38 DR IC50 Inflection

Structure (SMILES)	IC50 [1, 5]	IC50 ([1]; read-out: Aβ 40 IC50)	Notch % inhib [2]	IC50 [3, 6]	IC50 ([3]; read-out: Aβ 42 IC50)	IC50 [4, 7]	IC50 ([4]; read-out: Aβ 38 IC50)	inhibition at 5 µM ([2]; Homo sapiens)	IC50 ([2]; Homo sapiens, NICD levels)
CCO[C@@H]([C@H]1C[C@@H](C)[C@H]2[C@H](O1)[C@H](O)[C@@]1(C)[C@@H]3CC[C@H]4C(C)(C)[C@@H](O[C@H]5CN(C6CNC6)CCO5)CC[C@@]45C[C@@]35CC[C@]21C)C(C)(C)O [Compound I-2]	> 5000 nM	1000 to 5000 nM	A (A is range from 0-25%)	< 100 nM	100 to 500 nM	100 to 500 nM	100 to 500 nM	–	–
CCO[C@@H]([C@H]1C[C@@H](C)[C@H]2[C@H](O1)[C@H](O)[C@@]1(C)[C@@H]3CC[C@H]4C(C)(C)[C@@H](O[C@H]5CN(C6CN(C)C6)CCO5)CC[C@@]45C[C@@]35CC[C@]21C)C(C)(C)O [Compound I-3]	–	–	–	–	–	–	–	26 to 50%	–
CCO[C@@H]([C@H]1C[C@@H](C)[C@H]2[C@H](O1)[C@H](O)[C@@]1(C)[C@@H]3CC[C@H]4C(C)(C)[C@@H](O[C@H]5CN(C6CN(CC(=O)N(C)C)C6)CCO5)CC[C@@]45C[C@@]35CC[C@]21C)C(C)(C)O [Compound I-7]	–	1000 to 5000 nM	A (A is range from 0-25%)	100 to 500 nM	100 to 500 nM	–	100 to 500 nM	–	–
CCO[C@@H]([C@H]1C[C@@H](C)[C@H]2[C@H](O1)[C@H](O)[C@@]1(C)[C@@H]3CC[C@H]4C(C)(C)[C@@H](O[C@H]5CN(C6CN(CC(=O)N7CCC7)C6)CCO5)CC[C@@]45C[C@@]35CC[C@]21C)C(C)(C)O [Compound I-8]	–	1000 to 5000 nM	A (A is range from 0-25%)	100 to 500 nM	100 to 500 nM	–	1000 to 5000 nM	–	–
CCO[C@@H]([C@H]1C[C@@H](C)[C@H]2[C@H](O1)[C@H](O)[C@@]1(C)[C@@H]3CC[C@H]4C(C)(C)[C@@H](O[C@H]5CN(C6CCN(C7COC7)CC6)CCO5)CC[C@@]45C[C@@]35CC[C@]21C)C(C)(C)O [Compound I-35]	1000 to 5000 nM	1000 to 5000 nM	–	100 to 500 nM	100 to 500 nM	–	501 to 1000 nM	–	> 5000 nM
CCO[C@@H]([C@H]1C[C@@H](C)[C@H]2[C@H](O1)[C@H](O)[C@@]1(C)[C@@H]3CC[C@H]4C(C)(C)[C@@H](O[C@H]5CN(CCN6CCC6)CCO5)CC[C@@]45C[C@@]35CC[C@]21C)C(C)(C)O [Compound I-57]	1000 to 5000 nM	1000 to 5000 nM	–	< 100 nM	100 to 500 nM	–	100 to 500 nM	0 to 25%	–
CCO[C@@H]([C@H]1C[C@@H](C)[C@H]2[C@H](O1)[C@H](O)[C@@]1(C)[C@@H]3CC[C@H]4C(C)(C)[C@@H](O[C@H]5CN(CCN6CCOCC6)CCO5)CC[C@@]45C[C@@]35CC[C@]21C)C(C)(C)O [Compound I-58]	–	> 5000 nM	–	100 to 500 nM	100 to 500 nM	–	501 to 1000 nM	26 to 50%	–
CCO[C@@H]([C@H]1C[C@@H](C)[C@H]2[C@H](O1)[C@H](O)[C@@]1(C)[C@@H]3CC[C@H]4C(C)(C)[C@@H](O[C@H]5CN(CCNCCOC)CCO5)CC[C@@]45C[C@@]35CC[C@]21C)C(C)(C)O [Compound I-60]	1000 to 5000 nM	1000 to 5000 nM	A (A is range from 0-25%)	100 to 500 nM	100 to 500 nM	100 to 500 nM	100 to 500 nM	–	–
CCO[C@@H]([C@H]1C[C@@H](C)[C@H]2[C@H](O1)[C@H](O)[C@@]1(C)[C@@H]3CC[C@H]4C(C)(C)[C@@H](O[C@H]5CN(CCN(C)CCOC)CCO5)CC[C@@]45C[C@@]35CC[C@]21C)C(C)(C)O [Compound I-61]	1000 to 5000 nM	1000 to 5000 nM	A (A is range from 0-25%)	100 to 500 nM	100 to 500 nM	–	501 to 1000 nM	–	–
CCO[C@@H]([C@H]1C[C@@H](C)[C@H]2[C@H](O1)[C@H](O)[C@@]1(C)[C@@H]3CC[C@H]4C(C)(C)[C@@H](O[C@H]5CN([C@@H](C)CN6CCC6)CCO5)CC[C@@]45C[C@@]35CC[C@]21C)C(C)(C)O [Compound I-76]	–	–	B (B is a range from 26-50%)	1000 to 5000 nM	–	–	–	–	–
CCO[C@@H]([C@H]1C[C@@H](C)[C@H]2[C@H](O1)[C@H](O)[C@@]1(C)[C@@H]3CC[C@H]4C(C)(C)[C@@H](O[C@H]5CN([C@H](C)CN6CCC6)CCO5)CC[C@@]45C[C@@]35CC[C@]21C)C(C)(C)O [Compound I-77]	–	–	A (A is range from 0-25%)	–	–	–	–	–	–
